Experiments:
Assay type in all cases: in vivo
Parameters in all cases: scale not given here
[1] = tested on: CHEAL, Lambsquarters, Chenopodium album, L.; assay: Postemergence herbicidal evaluation
Experimental: (§1) The postemergence herbicidal activity of the compounds of the present invention is evaluated by the following tests. Seedling plants are grown in jiffy flats for about two weeks. The test compounds are dispersed in 80/20 (v/v) acetone/water mixtures containing 1.0% SUN-IT®II, a methylated seed oil, in sufficient quantities to provide the equivalent of about 0.006 kg/ha to 0.800 kg/ha of active compound when applied to the plants through a spray nozzle operating at 40 psi for a predetermined time. After spraying, the plants are placed on greenhouse benches and are cared for in accordance with conventional greenhouse procedures. Approximately two to three weeks after treatment, the seedling plants are examined and rated according to the rating system set forth below. Where more than one test is involved for a given compound, the data are averaged.

[2] = tested on: ABUTH, Velvetleaf, Abutilon theophrasti, Medic.; assay: Postemergence herbicidal evaluation
Experimental: as §1

[3] = tested on: AMBEL, Ragweed, Ambrosia artemisifolia, L.; assay: Postemergence herbicidal evaluation
Experimental: as §1

[4] = tested on: SETVI, Foxtail, Green, Setaria viridis, (L.) Beau; assay: Postemergence herbicidal evaluation
Experimental: as §1

[5] = tested on: ZEAMX, Corn, Field, Zea mays, L.; assay: Postemergence herbicidal evaluation; conditions: crop (corn)
Experimental: as §1

[6] = tested on: ECHCG, Barnyardgrass, Echinochloa crus-galli, (L.) Beau; assay: Postemergence herbicidal evaluation
Experimental: as §1

[7] = tested on: ORYSAT, Rice, Tebonnet, Oryza sativa, (L.) Tebonnet; assay: Preemergence herbicidal evaluation; conditions: crop (rice)
Description: (§2) The preemergence herbicidal activity of the test compounds of the present invention is exemplified by the following tests in which the seeds of a variety of monocotyledonous and dicotyledonous plants are separately mixed with potting soil and planted on top of approximately one inch of soil in separate pint cups. After planting, the cups are sprayed with the selected aqueous acetone solution containing test compound in sufficient quantity to provide the equivalent of about 0.0125 kg/ha to 0.800 kg/ha of test compound per cup. The treated cups are then placed on greenhouse benches, watered and cared for in accordance with conventional greenhouse procedures. Approximately two to four weeks after treatment, the tests are terminated and each cup is examined and rated according to the rating system provided in Example 12. When more than one test is performed for a given compound, the data are averaged.

[8] = tested on: CHEAL, Lambsquarters, Chenopodium album, L.; assay: Preemergence herbicidal evaluation
Description: as §2

[9] = tested on: ABUTH, Velvetleaf, Abutilon theophrasti, Medic.; assay: Preemergence herbicidal evaluation
Description: as §2

[10] = tested on: AMBEL, Ragweed, Ambrosia artemisifolia, L.; assay: Preemergence herbicidal evaluation
Description: as §2

[11] = tested on: SETVI, Foxtail, Green, Setaria viridis, (L.) Beau; assay: Preemergence herbicidal evaluation
Description: as §2

[12] = tested on: IPOSS, Morningglory spp., Ipomoea spp.; assay: Preemergence herbicidal evaluation
Description: as §2

[13] = tested on: ZEAMX, Corn, Field, Zea mays, L.; assay: Preemergence herbicidal evaluation; conditions: crop (corn)
Description: as §2

[14] = tested on: ECHCG, Barnyardgrass, Echinochloa crus-galli, (L.) Beau; assay: Preemergence herbicidal evaluation
Description: as §2

[15] = tested on: PANDI, Panicum, Fall, Panicum dichotomiflorum, Michx; assay: Preemergence herbicidal evaluation
Description: as §2

[16] = tested on: GOSHI, Cotton, Gossypium hirsutum, L.; assay: Preemergence herbicidal evaluation; conditions: crop (cotton)
Description: as §2

COc1ccc(OC(=C2C=NN(C)C2=O)c2ccc3c(c2C)C(C)(C)CS3(=O)=O)cc1 [Example 3, 4-[(Z)-(2,3-Dihydro-3,3,4-trimethylbenzo-[b]thien-5-yl)(p-methoxyphenoxy)methylene]-1-methyl-2-pyrazolin-5-one, S,S-dioxide]
5.0: Herbicide rating SETVI ([4]; 0.0500 kg/ha)
9.0: Herbicide rating CHEAL ([1]; 0.1000 kg/ha)
2.0: Herbicide rating ABUTH ([2]; 0.0125 kg/ha) | Herbicide rating AMBEL ([3]; 0.0125 kg/ha) | Herbicide rating ZEAMX ([5]; 0.1000 kg/ha) | Herbicide rating ECHCG ([6]; 0.0125 kg/ha)
3.0: Herbicide rating SETVI ([4]; 0.0250 kg/ha) | Herbicide rating ECHCG ([6]; 0.0250 kg/ha)
0.0: Herbicide rating ZEAMX ([5]; 0.0125 kg/ha) | Herbicide rating ZEAMX ([5]; 0.0250 kg/ha) | Herbicide rating ZEAMX ([5]; 0.0500 kg/ha)
4.0: Herbicide rating ABUTH ([2]; 0.0250 kg/ha) | Herbicide rating AMBEL ([3]; 0.0250 kg/ha) | Herbicide rating ECHCG ([6]; 0.0500 kg/ha)
8.0: Herbicide rating CHEAL ([1]; 0.0500 kg/ha)
6.0: Herbicide rating CHEAL ([1]; 0.0125 kg/ha) | Herbicide rating CHEAL ([1]; 0.0250 kg/ha) | Herbicide rating ECHCG ([6]; 0.1000 kg/ha)
7.0: Herbicide rating ABUTH ([2]; 0.0500 kg/ha) | Herbicide rating ABUTH ([2]; 0.1000 kg/ha) | Herbicide rating AMBEL ([3]; 0.0500 kg/ha) | Herbicide rating AMBEL ([3]; 0.1000 kg/ha) | Herbicide rating SETVI ([4]; 0.1000 kg/ha)
1.0: Herbicide rating SETVI ([4]; 0.0125 kg/ha)

4-Methoximino-5-methyl-6-(1-ethyl-5-hydroxypyrazol-4-yl)thiocarbonylthiochroman-1,1-dioxide, zinc (+2) chelate [Example 6]
7.0: Herbicide rating ORYSAT ([7]; 0.1000 kg/ha) | Herbicide rating AMBEL ([10]; 0.0500 kg/ha) | Herbicide rating SETVI ([11]; 0.1000 kg/ha) | Herbicide rating GOSHI ([16]; 0.8000 kg/ha)
8.0: Herbicide rating AMBEL ([10]; 0.1000 kg/ha) | Herbicide rating ECHCG ([14]; 0.8000 kg/ha) | Herbicide rating PANDI ([15]; 0.4000 kg/ha) | Herbicide rating PANDI ([15]; 0.8000 kg/ha) | Herbicide rating GOSHI ([16]; 0.4000 kg/ha)
9.0: Herbicide rating ORYSAT ([7]; 0.2000 kg/ha) | Herbicide rating ORYSAT ([7]; 0.4000 kg/ha) | Herbicide rating ORYSAT ([7]; 0.8000 kg/ha) | Herbicide rating CHEAL ([8]; 0.0500 kg/ha) | Herbicide rating CHEAL ([8]; 0.1000 kg/ha) | Herbicide rating CHEAL ([8]; 0.2000 kg/ha) | Herbicide rating CHEAL ([8]; 0.4000 kg/ha) | Herbicide rating CHEAL ([8]; 0.8000 kg/ha) | Herbicide rating ABUTH ([9]; 0.0500 kg/ha) | Herbicide rating ABUTH ([9]; 0.1000 kg/ha) | Herbicide rating ABUTH ([9]; 0.2000 kg/ha) | Herbicide rating ABUTH ([9]; 0.4000 kg/ha) | Herbicide rating ABUTH ([9]; 0.8000 kg/ha) | Herbicide rating AMBEL ([10]; 0.2000 kg/ha) | Herbicide rating AMBEL ([10]; 0.4000 kg/ha) | Herbicide rating AMBEL ([10]; 0.8000 kg/ha) | Herbicide rating SETVI ([11]; 0.2000 kg/ha) | Herbicide rating SETVI ([11]; 0.4000 kg/ha) | Herbicide rating SETVI ([11]; 0.8000 kg/ha) | Herbicide rating ECHCG ([14]; 0.1000 kg/ha) | Herbicide rating ECHCG ([14]; 0.2000 kg/ha) | Herbicide rating ECHCG ([14]; 0.4000 kg/ha) | Herbicide rating PANDI ([15]; 0.1000 kg/ha) | Herbicide rating PANDI ([15]; 0.2000 kg/ha)
1.0: Herbicide rating IPOSS ([12]; 0.0500 kg/ha) | Herbicide rating ZEAMX ([13]; 0.4000 kg/ha) | Herbicide rating GOSHI ([16]; 0.1000 kg/ha)
3.0: Herbicide rating IPOSS ([12]; 0.1000 kg/ha) | Herbicide rating ECHCG ([14]; 0.0500 kg/ha)
0.0: Herbicide rating ZEAMX ([13]; 0.0500 kg/ha) | Herbicide rating ZEAMX ([13]; 0.1000 kg/ha) | Herbicide rating ZEAMX ([13]; 0.2000 kg/ha) | Herbicide rating ZEAMX ([13]; 0.8000 kg/ha) | Herbicide rating GOSHI ([16]; 0.0500 kg/ha)
6.0: Herbicide rating IPOSS ([12]; 0.2000 kg/ha) | Herbicide rating PANDI ([15]; 0.0500 kg/ha) | Herbicide rating GOSHI ([16]; 0.2000 kg/ha)
4.0: Herbicide rating ORYSAT ([7]; 0.0500 kg/ha) | Herbicide rating SETVI ([11]; 0.0500 kg/ha)
5.0: Herbicide rating IPOSS ([12]; 0.4000 kg/ha) | Herbicide rating IPOSS ([12]; 0.8000 kg/ha)
